Entries after “also recorded” stand apart in the source; their conditions may differ.
Test system: RAW264.7 cells
Experiment: RAW264.7 cells stimulated with LPS or poly I:C: phosphorylation (immunoblot)
Assay type: cell-based
Conditions: for LPS or poly I:C-stimulated phosphorylation of IRF3: LPS 0.5 μg/ml or poly I:C 50 μg/ml; for phosphorylation of TBK1 on serine 172: LPS or poly I:C stimulated
Experimental: 3T3-L1 fibroblasts (American Type Culture Collection, Manassas, Va.) were cultured and differentiated using standard methods known in the art. […] 3T3-L1 adipocytes were serum starved with 0.5% fetal bovine serum (FBS) in Dulbecco's modified eagle medium (DMEM) prior to treatment. TNFα treatments (50 ng/mL unless otherwise noted) were performed during the 24 hour prior to harvest, after pretreatment with IKKβ inhibitor compound VIII (EMD Biosciences, Philadelphia, Pa.) for 1 hour where indicated. […] Cells were treated with or without 10 nM of insulin for 15 minutes. RAW264.7 cells were serum starved with 0.5% FBS DMEM media and pre-treated with or without Cay-10576 (Cayman Chemical, Ann Arbor, Mich.). The cells were then treated with LPS (0.5 μg/ml) or poly I:C (50 μg/ml) for 1 hour. Cells were harvested for total RNA and analyzed by real-time PCR Cell lysates were resolved on SDS-PAGE and analyzed by immunoblot using the indicated antibodies.

**Q.** What does the source list for `COc1cc2ncn(-c3cc(OCc4ccccc4S(C)(=O)=O)c(C#N)s3)c2cc1OC` [Cay-10576]?
**A.** LPS or poly I:C-stimulated phosphorylation of IRF3: blocked; LPS or poly I:C-stimulated phosphorylation of IRF3 (listed as cayman): reverses; phosphorylation of TBK1 on serine 172: stimulated; phosphorylation of TBK1 on serine 172 (listed as cayman): inducing; IKKβ phosphorylation (listed as cayman): increased; also recorded: inducing
